Data reported in patent US20220010310A1, “An lncRNA integrates a DNA-PK-mediated DNA damage response and vascular senescence” (The Brigham and Women`s Hospital, Inc., priority 2018, published 2022).

B1: Deletion of domain-4: biotinylated SNHG12 construct with predicted secondary-structure domain 4 deleted (nucleic acid, listed as Homo sapiens)
chain: TGCAAGCCTCTGCCTGCCTTCCTGCGCGCCGTTCCCCGCTAGTCGCTGCTGCTGGCGCGCACTCGCCGGGTTTTTCCTCCCACGGCCTCGAGATGGTGGTGAATGTGGCACGGAGGAGCCGGGCCTTCCAACCCGGTGGGCCCGAGCTCCGAAAGGCCCCCTCGGCAGTGAGAGGGGCGGGAGCCCGCGGGGGCCGCGCCCTTCTCTCGCTTCGGACTGCGCAACGCTGCGCTCTGGGCTGACAGGCGGATAAAACGGTCCCATCAAGACTGAGAAAAAGCACACCAGCTATTGGCACAGCGTGGGCAGTGGGGCCTACAGGATGACTGACTTAGTCTACAGAGATCCCGGCGTACTTAAGCAGATGAAGACTCTTAAGATGACAGAAGGTGATTTTTCTGGTGATCGAGGACTTCCGGGGTAATGACAGTGATGAAATGCAGGGGACCTGGTTGCCCCCAAGTTTCCTGGCAGTGTGTGATACTGAGGAGGTGAGCTTGTTTCTGGAGCTGTGCTTTAAGGTAAAGTTGATCAGCTTAATCCTCCTGATCCCTTTCCCA
modifications: biotin
notes: biotinylated SNHG12 construct with predicted secondary-structure domain 4 deleted

Key:
LDLR−/− mice = test: NR rescue of SNHG12-gapmeR accelerated atherosclerosis in LDLR−/− mice; format: in vivo, mouse
Experimental: FIGS. 5A-G. NR rescued progression of atherosclerotic lesions in LDLR^−/− mice induced by SNHG12 silencing. (A) LDLR^−/− mice were i.v. injected with vehicle control or SNHG12-gapmeR (7.5 mg/kg/mouse) twice per week and placed on an HCD containing NR (400 mg/kg/day) for 12 weeks (n=12 per group). (B) Lesion areas were quantified using ORO area on aortic sinus sections (n=10 per group). Fold change was calculated compared to groups from study 1 as described in FIG. 1. P value was determined by Student's t test. (C) Lesional DNA damage in the vascular endothelium of the aortic arch was quantified in LDLR^−/− mice by γH2AX with nuclear co-localization with DAPI in CD31^+ cells compared to study 1. RT-qPCR analysis for (D) SNHG12 and (E) markers of senescence p16, p21, and p27 from RNA isolated of the aortic intima of mice placed on HCD containing NR (n=6 per group). P value was determined by Student's t test. (F) Acellular areas were measured in the aortic sinus for each of the indicated groups (n=6 per group; 2-3 lesion per mice). (G) TUNEL staining was quantified in the aortic sinus for each of the indicated groups (n=7 per group). P value was determined by Student's t test. For all panels, values are mean±SD; *p<0.05, **p<0.01; ***p<0.001; ****p<0.0001.
Furthermore, administration of the NAD^+ precursor NR can limit DNA damage. […] To assess whether SNHG12-deficient lesion progression involves increased DNA damage, SNHG12-gapmeR was delivered i.v. as described in (FIG. 1F) and the HCD was supplemented with NR (400 mg/kg/day) (FIG. 5A). […] Moreover, NR administration abrogated the SNHG12-gapmeR mediated effect on increased γH2AX foci in lesional ECs in the aortic arch (FIG. 5C). Consistent with less DNA damage, the induction of the senescence markers p16, p21, and p27 fell in the presence of NR compared to LDLR^−/− mice treated with SNHG12-gapmeRs without NR (FIGS. 5D, 5E). […] Taken together, the rescue effects mediated by NR strongly support the findings that the lncRNA SNHG12 regulates the DDR both in vitro and in vivo.

HUVECs = test: Mitochondrial stress (Seahorse OCR/ECAR, NAD+/NADH) in gapmeR-transfected HUVECs; format: cell-based, human
Experimental: FIGS. 13A-D. Accumulating DNA damage and its effect on mitochondrial stress. (A) Oxidative consumption rate (OCR) and extracellular acidification rate (ECAR). The bars from left to right represent control, control+NR, SNHG12 KD, and SNHG12 KD+NR, respectively. (B) in HUVECs transfected with the indicated gapmeRs in the absence or presence of NR (500 μM, 24 hrs) (n=3). P value was determined by one-way analysis of variance (ANOVA) (Fisher's test). The bars from left to right represent control, control+NR, SNHG12 KD, and SNHG12 KD+NR, respectively. (C) SNHG12 expression or (D) ratio of NAD+ to […] in gapmeR-transfected HUVECs in the absence or presence of NR (n=3). P value was determined by Student's t test. For all panels, values are mean±SD; *p<0.05, **p<0.01; ***p<0.001; ****p<0.0001.
Mitochondrial dysfunction is a hallmark of senescence and reparative responses during oxidative insults requires effective energy metabolism. Oxidative stress-induced DNA damage activates NAD+ consumption pathways (31). Examination of the effect of SNHG12 knockdown on key mitochondrial activities such as mitochondrial respiration and glycolysis in ECs used Seahorse analyses. Loss of SNHG12 decreased the extracellular acidification rate (ECAR) and oxygen consumption rate (OCR) of live cells (FIGS. 13A, 13B). […]

DNA-PK = molecular target: T1, DNA-PK (Homo sapiens, UniProt P78527); test: lncRNA pulldown of biotinylated SNHG12 domain deletion constructs; format: binding; conditions: pulldown with HUVEC nuclear protein lysate
T1 construct: lncRNA pulldown using nuclear protein extract from HUVECs; endogenous in cells; host or cells: HUVEC nuclear protein lysate
From the text: (A) Proteins identified in pulldowns of biotinylated SNHG12; DNA-PK bound specifically to SNHG12 compared to negative control LacZ (n=2, two technical replicates each). (B) Immunoblotting for DNA-PK, ATM, ATR, Ku80, Ku70, p53, and control on nuclear protein lysate from HUVECs after lncRNA pulldown (n=5). (C) Analysis after streptavidin pulldown of nuclear protein lysate derived from the aorta of C57B1/6 mice following two i.v. injections of biotin-labeled SNHG12 compared to LacZ (n=4 per group). (D, E) Predicted secondary structure of SNHG12 with indicated deletions of domains 1˜4 used for subsequent lncRNA pulldown of biotinylated SNHG12 domain deletion constructs (n=4). P value was determined by one-way analysis of variance (ANOVA) (Fisher's test). (F) IP for DNA-PK following RNA isolation and subsequent RT-qPCR for SNHG12 and for negative control HPRT (n=5). […] Immunoblotting for Ku70, Ku80 and DNA-PK and (H) quantification under H2O2 conditions (n=3). […]
To identify potential SNHG12-interacting proteins that may inform mechanisms underlying these findings, biotin-labeled T7 in vitro transcribed SNHG12 or LacZ was incubated with nuclear protein lysate of HUVECs (FIG. 9A). […] Furthermore, biophysical studies determined the equilibrium dissociation constant (KD) for the SNHG12-DNA-PK interaction (1.318E-07 μM) (FIG. 9E). […]

T1 sequence (P78527 whole entry, the tested form may be a part): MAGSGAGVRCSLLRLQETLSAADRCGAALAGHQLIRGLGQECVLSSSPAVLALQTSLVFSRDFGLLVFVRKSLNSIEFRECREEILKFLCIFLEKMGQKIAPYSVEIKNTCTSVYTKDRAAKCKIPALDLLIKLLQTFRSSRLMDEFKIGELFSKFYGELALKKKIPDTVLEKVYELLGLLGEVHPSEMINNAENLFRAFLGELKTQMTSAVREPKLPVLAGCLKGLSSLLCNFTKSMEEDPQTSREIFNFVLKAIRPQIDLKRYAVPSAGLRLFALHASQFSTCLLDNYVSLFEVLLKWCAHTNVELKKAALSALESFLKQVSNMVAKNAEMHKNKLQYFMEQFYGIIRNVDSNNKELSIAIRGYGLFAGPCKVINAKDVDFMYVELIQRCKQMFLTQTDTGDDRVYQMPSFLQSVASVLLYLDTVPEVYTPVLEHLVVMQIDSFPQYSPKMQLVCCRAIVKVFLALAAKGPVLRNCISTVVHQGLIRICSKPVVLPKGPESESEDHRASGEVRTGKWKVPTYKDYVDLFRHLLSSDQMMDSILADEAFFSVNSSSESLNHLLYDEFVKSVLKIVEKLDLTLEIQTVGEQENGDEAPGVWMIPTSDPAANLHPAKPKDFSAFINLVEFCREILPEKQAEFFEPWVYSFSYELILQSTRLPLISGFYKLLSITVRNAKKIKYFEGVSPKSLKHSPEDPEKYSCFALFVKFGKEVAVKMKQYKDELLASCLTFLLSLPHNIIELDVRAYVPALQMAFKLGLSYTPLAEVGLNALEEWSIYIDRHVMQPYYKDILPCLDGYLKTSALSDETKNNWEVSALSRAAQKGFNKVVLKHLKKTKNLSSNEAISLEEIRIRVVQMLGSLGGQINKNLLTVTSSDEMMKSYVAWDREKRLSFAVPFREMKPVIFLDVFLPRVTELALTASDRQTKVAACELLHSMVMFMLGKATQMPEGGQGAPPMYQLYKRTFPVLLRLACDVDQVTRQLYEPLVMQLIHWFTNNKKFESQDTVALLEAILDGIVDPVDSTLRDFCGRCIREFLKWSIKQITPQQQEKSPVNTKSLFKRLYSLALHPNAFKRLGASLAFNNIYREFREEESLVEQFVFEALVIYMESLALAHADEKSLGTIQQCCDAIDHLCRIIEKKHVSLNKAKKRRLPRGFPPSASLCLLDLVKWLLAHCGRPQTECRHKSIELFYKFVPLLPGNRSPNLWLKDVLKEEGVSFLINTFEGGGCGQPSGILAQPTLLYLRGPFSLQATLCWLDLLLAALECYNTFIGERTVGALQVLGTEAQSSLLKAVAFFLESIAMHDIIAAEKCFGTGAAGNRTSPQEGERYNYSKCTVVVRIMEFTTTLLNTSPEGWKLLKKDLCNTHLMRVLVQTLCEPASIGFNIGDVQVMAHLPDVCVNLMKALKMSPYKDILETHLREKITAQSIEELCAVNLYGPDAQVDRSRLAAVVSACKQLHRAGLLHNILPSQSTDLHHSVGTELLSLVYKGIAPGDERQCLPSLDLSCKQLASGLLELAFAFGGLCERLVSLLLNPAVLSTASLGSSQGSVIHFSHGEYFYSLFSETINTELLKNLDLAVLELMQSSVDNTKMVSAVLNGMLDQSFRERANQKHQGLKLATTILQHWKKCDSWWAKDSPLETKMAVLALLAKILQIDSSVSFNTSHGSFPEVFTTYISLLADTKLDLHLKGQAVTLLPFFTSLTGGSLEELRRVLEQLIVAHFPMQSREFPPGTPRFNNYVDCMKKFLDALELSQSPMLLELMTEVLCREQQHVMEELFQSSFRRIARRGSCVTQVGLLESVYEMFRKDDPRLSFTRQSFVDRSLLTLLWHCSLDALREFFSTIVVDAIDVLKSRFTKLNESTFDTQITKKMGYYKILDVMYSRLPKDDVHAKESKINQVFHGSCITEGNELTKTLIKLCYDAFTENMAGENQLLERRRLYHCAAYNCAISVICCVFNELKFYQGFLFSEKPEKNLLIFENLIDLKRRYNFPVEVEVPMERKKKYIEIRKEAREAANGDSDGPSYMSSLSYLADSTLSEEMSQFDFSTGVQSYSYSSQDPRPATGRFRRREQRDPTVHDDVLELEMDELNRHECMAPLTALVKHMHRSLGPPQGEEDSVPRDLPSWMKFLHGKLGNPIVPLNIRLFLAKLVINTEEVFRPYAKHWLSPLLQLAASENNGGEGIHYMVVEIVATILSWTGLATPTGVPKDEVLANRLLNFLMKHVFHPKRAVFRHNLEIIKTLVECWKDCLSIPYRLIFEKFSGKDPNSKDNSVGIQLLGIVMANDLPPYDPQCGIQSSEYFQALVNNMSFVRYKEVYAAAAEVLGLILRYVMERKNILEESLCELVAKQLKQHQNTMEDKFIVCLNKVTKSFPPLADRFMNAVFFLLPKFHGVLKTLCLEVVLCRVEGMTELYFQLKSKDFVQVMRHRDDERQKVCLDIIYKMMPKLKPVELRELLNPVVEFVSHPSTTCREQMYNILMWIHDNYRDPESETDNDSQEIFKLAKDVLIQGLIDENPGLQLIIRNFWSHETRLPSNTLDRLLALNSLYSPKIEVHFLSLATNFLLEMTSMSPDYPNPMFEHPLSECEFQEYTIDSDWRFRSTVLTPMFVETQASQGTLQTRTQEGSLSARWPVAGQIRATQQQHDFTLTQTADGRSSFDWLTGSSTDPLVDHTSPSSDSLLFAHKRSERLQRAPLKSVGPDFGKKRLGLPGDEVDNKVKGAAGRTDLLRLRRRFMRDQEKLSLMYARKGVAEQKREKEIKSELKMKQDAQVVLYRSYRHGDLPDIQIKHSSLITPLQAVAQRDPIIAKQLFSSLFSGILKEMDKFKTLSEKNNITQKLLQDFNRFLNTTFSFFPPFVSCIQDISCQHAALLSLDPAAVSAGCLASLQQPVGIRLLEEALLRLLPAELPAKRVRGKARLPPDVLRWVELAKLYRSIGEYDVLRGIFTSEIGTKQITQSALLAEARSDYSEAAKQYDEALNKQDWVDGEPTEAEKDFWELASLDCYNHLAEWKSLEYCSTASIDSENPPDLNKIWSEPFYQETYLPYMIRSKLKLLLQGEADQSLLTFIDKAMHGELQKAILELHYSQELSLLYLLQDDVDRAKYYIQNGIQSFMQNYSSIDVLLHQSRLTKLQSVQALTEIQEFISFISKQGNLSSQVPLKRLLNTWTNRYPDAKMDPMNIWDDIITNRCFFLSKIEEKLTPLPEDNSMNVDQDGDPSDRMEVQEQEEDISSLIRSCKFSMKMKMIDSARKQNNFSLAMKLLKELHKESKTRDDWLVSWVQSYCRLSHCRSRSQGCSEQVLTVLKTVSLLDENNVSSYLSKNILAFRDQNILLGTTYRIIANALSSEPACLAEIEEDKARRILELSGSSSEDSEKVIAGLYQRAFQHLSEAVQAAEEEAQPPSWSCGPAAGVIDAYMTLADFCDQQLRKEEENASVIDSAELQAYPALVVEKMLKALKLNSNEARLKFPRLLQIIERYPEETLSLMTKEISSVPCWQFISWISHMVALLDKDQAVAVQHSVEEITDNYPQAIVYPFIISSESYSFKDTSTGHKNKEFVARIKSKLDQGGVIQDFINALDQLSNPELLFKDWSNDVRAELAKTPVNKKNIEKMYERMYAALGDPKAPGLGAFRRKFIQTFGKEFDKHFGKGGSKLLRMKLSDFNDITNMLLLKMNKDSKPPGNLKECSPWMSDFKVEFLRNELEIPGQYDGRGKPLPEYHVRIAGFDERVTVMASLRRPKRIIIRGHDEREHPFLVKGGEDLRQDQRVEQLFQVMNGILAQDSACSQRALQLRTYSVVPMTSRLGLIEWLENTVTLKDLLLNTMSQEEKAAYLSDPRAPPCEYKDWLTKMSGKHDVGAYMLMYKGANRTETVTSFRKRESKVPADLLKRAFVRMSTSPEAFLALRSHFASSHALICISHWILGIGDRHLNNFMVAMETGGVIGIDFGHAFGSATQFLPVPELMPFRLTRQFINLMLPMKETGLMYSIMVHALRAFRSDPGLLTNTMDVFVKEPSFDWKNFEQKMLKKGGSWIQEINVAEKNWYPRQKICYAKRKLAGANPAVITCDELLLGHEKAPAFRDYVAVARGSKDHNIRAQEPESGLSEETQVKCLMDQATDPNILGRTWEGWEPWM

Molecule | increase in lesion areas by ORO between SNHG12-gapmeR and control-gapmeR groups on NR (LDLR−/− mice; HCD with NR 400 mg/kg/day, 12 weeks, P=0.1729) | SNHG12-gapmeR mediated increase of γH2AX foci in lesional ECs in the aortic arch (LDLR−/− mice; NR 400 mg/kg/day, 12 weeks) | induction of senescence markers p16, p21, and p27 compared to SNHG12-gapmeR without NR (LDLR−/− mice; aortic intima, NR 400 mg/kg/day) | TUNEL positive cells compared to groups without NR (LDLR−/− mice; aortic sinus, NR 400 mg/kg/day) | differences in plaque necrosis (LDLR−/− mice; aortic sinus, NR 400 mg/kg/day) | SNHG12 expression (HUVECs; NR 500 μM, 24 hrs) | NAD+/NADH ratio (HUVECs; gapmeR-transfected HUVECs, absence or presence of NR) | reduction of DNA-PK binding (DNA-PK)
NC(=O)c1ccc[n+]([C@@H]2O[C@H](CO)[C@@H](O)[C@H]2O)c1 [NR, Nicotinamide Riboside] | no significant | abrogated | fell | reduced | eliminated differences | did not affect | partially rescued | 
B1 |  |  |  |  |  |  |  | ~50%
